Earlier results in patent US12447129B2, “Solid dosage form production” (University of Lancashire, priority 2014, dated 2025).

What was measured:
[1] = plasticiser alone; input to the calculation
[2] = at 25° C.

| Tg (K) plasticiser [1] | water sol. [2] | Structure (SMILES) |
| --- | --- | --- |
| 203.55 K | – | CCOC(=O)CC(O)(CC(=O)OCC)C(=O)OCC [TEC] |
| 193.7 K | – | CC(=O)OCC(COC(C)=O)OC(C)=O [Triacitin] |
| – | 7360 mg/L | Cn1c(=O)c2[nH]cnc2n(C)c1=O [theophylline] |
